Source: US20220348592A1, “FUSED HETEROCYCLIC DERIVATIVES” (Janssen Sciences Ireland Unlimited Company, priority 2019, published 2022)
Like-named read-outs stand apart in the source and are kept apart here.

Assays:
[1] = tested on: HBV; assay: Anti-HBV activity: intracellular HBV DNA by real-time PCR in HepG2.117 cell line; format: cell-based, Hepatitis B virus; details: Hepatitis B virus, read-out: HBV-AVE-HepG2.117 EC50 (μM, mean value)
Method: The anti HBV activity was measured using the HepG2.117 cell line, a stable, inducibly HBV producing cell line, which replicates HBV in the absence of doxicycline (Tet-off system). The HepG2 cell line is available from ATCC® under number HB-8065. Transfection of the HepG2 cell line can be as described in Sun and Nassal 2006 Journal of Hepatology 45 (2006) 636-645 “Stable HepG2- and Huh7-based human hepatoma cell lines for efficient regulated expression of infectious hepatitis B virus”.
For the antiviral assay, HBV replication was induced, followed by a treatment with serially diluted compound in 96-well plates. After 3 days of treatment, the antiviral activity was determined by quantification of intracellular HBV DNA using real-time PCR and an HBV specific primer set and probe.

[2] = Cytotoxicity in HepG2.117 cells, ATPlite Luminescence Assay; format: cell-based, human; details: human, incubated for 3 days, mean value, read-out: TOX-HepG2.117 CC50 (μM, mean value)
Method: Cytotoxicity of the compounds was tested using HepG2 or HepG2.117 cells, incubated for 3 days in the presence of compounds. The viability of the cells was assessed using the PERKIN ELMER ATPlite Luminescence Assay System.”

[3] = 72 h, HepG2.117 cells, 3 days of treatment, intracellular HBV DNA by real-time PCR, mean value

With `C[C@@H]1Cc2nn3c(c2CN1C(=O)c1ccc(Cl)c(Cl)c1)C(=O)N([C@@H](C)c1ccc(C(F)(F)F)cc1)CC3` (relative stereo) [C105*S] the EC50 [1, 3] was 0.297 µM and the CC50 at 3 days [2] was greater than 50 µM.
Compound `Cc1cc(CN2CCn3nc4c(c3C2=O)CN(C(=O)c2ccc(Cl)c(Cl)c2)[C@H](C)C4)on1` [Example C145] has an EC50 [1, 3] of 0.106 µM and a CC50 at 3 days [2] greater than 50 µM.
Work on `C[C@@H]1Cc2nn3c(c2CN1C(=O)c1ccc(Cl)c(Cl)c1)C(=O)N(Cc1cc(C#N)ccc1F)CC3` [Example C180] yielded an EC50 [1, 3] of 0.123 µM and a CC50 at 3 days [2] greater than 50 µM.
Compound `CN1O[C@H](CO)Cn2nc3c(c2C1=O)CN(C(=O)c1ccc(Cl)c(Cl)c1)CC3` (single isomer, unassigned) [Compound 46, (4*S)-10-(3,4-Dichlorobenzoyl)-4-(hydroxymethyl)-2-methyl-4,5,8,9,10,11-hexahydropyrido-[4′,3′:3,4]pyrazolo[5,1-d][1,2,5]oxadiazepin-1(2H)-one] has an EC50 [1, 3] of 0.505 µM and a CC50 at 3 days [2] greater than 50 µM.
For `C[C@@H]1Cc2nn3c(c2CN1C(=O)c1ccc(Cl)c(Cl)c1)C(=O)N(Cc1ccc(C#N)c(F)c1)CC3` [Example C238], the EC50 [1, 3] was 0.029 µM and the CC50 at 3 days [2] was 39.9 µM.
With `CC(c1ccccc1C#N)N1CCn2nc3c(c2C1=O)CN(C(=O)c1ccc(Cl)c(Cl)c1)[C@H](C)C3` (some centres unmarked) [Example C129] the EC50 [1, 3] was 0.143 µM and the CC50 at 3 days [2] was greater than 50 µM.
In the case of `C[C@@H]1Cc2nn3c(c2CN1C(=O)c1cc2c(F)c(F)c(F)cc2[nH]1)C(=O)N(Cc1ccccn1)CC3` [Example C97], the EC50 [1, 3] is reported as 0.011 µM and the CC50 at 3 days [2] is reported as 9.79 µM.
For `Cc1nnc(CN2CCn3nc4c(c3C2=O)CN(C(=O)c2ccc(Cl)c(Cl)c2)[C@H](C)C4)n1C` [Example C136], the EC50 [1, 3] was greater than 2.5 µM and the CC50 at 3 days [2] was greater than 50 µM.
In the case of `CC(C)Cc1nnc(C(C)N2CCn3nc4c(c3C2=O)CN(C(=O)c2ccc(Cl)c(Cl)c2)[C@H](C)C4)o1` (some centres unmarked) [Example C187], the EC50 [1, 3] is reported as 0.155 µM and the CC50 at 3 days [2] is reported as greater than 50 µM.
With `C[C@@H]1Cc2nn3c(c2CN1C(=O)c1ccc(Cl)c(Cl)c1)C(=O)N(Cc1cc[nH]n1)CC3` [Compound 20, (3R)-2-(3,4-Dichlorobenzoyl)-3-methyl-9-[(1H-pyrazol-3-yl)methyl]-1,2,3,4,8,9-hexahydro-pyrido[4′,3′:3,4]pyrazolo[1,5-a]pyrazin-10(7H)-one] the EC50 [1, 3] was 0.108 µM and the CC50 at 3 days [2] was greater than 50 µM.
`CC(C)c1noc(C(C)N2CCn3nc4c(c3C2=O)CN(C(=O)c2ccc(Cl)c(Cl)c2)[C@H](C)C4)n1` (some centres unmarked) [Example C183] showed an EC50 [1, 3] of 0.108 µM and a CC50 at 3 days [2] greater than 50 µM.
`C[C@@H]1Cc2nn3c(c2CN1C(=O)c1ccc(Cl)c(Cl)c1)C(=O)N(Cc1ccnc(F)c1)CC3` [Example C210] showed an EC50 [1, 3] of 0.062 µM and a CC50 at 3 days [2] greater than 50 µM.
With `COc1ccc(CN2CCn3nc4c(c3C2=O)CN(C(=O)c2cc(F)c(F)c(F)c2)CC4)cc1` [Example C56] the EC50 [1, 3] was 0.962 µM and the CC50 at 3 days [2] was 28.4 µM.
In the case of `C[C@@H]1Cc2nn3c(c2CN1C(=O)c1ccc(Cl)c(Cl)c1)C(=O)N(Cc1ccon1)CC3` [Compound 21, (3R)-2-(3,4-Dichlorobenzoyl)-3-methyl-9-[(1,2-oxazol-3-yl)methyl]-1,2,3,4,8,9-hexahydro-pyrido[4′,3′:3,4]pyrazolo[1,5-a]pyrazin-10(7H)-one], the EC50 [1, 3] is reported as 0.268 µM and the CC50 at 3 days [2] is reported as greater than 50 µM.
Compound `C[C@@H]1Cc2nn3c(c2CN1C(=O)c1ccc(Cl)c(Cl)c1)C(=O)N(Cc1ccc(OC(F)(F)F)cc1)CC3` [Compound 14, (3R)-2-(3,4-Dichlorobenzoyl)-3-methyl-9-{[4-(trifluoromethoxy)phenyl]methyl}-1,2,3,4,8,9-hexahydropyrido[4′,3′:3,4]pyrazolo[1,5-a]pyrazin-10(7H)-one] has an EC50 [1, 3] of 0.085 µM and a CC50 at 3 days [2] of 6.96 µM.
With `CC(c1cncnc1)N1CCn2nc3c(c2C1=O)CN(C(=O)c1ccc(Cl)c(Cl)c1)[C@H](C)C3` (some centres unmarked) [Example C103] the EC50 [1, 3] was 0.39 µM and the CC50 at 3 days [2] was greater than 50 µM.
`C[C@@H]1Cc2nn3c(c2CN1C(=O)c1ccc(C(F)(F)F)cc1)C(=O)N(Cc1ccccn1)CC3` [Example C115] gave an EC50 [1, 3] of 0.265 µM and a CC50 at 3 days [2] greater than 50 µM.
For `CC(c1ccncc1)N1CCn2nc3c(c2C1=O)CN(C(=O)c1ccc(Cl)c(Cl)c1)[C@H](C)C3` (some centres unmarked) [Example C250], the EC50 [1, 3] was 0.033 µM and the CC50 at 3 days [2] was greater than 12.5 µM.
Work on `C[C@@H]1Cc2nn3c(c2CN1C(=O)c1ccc(Cl)c(Cl)c1)C(=O)N(Cc1noc(C2CC2)n1)CC3` [Example C143] yielded an EC50 [1, 3] of 0.16 µM and a CC50 at 3 days [2] greater than 50 µM.
`C[C@@H]1Cc2nn3c(c2CN1C(=O)c1ccc(Cl)c(Cl)c1)C(=O)N(Cc1cncc(Cl)c1)CC3` [Example C132] showed an EC50 [1, 3] of 0.061 µM and a CC50 at 3 days [2] greater than 50 µM.
In the case of `C[C@@H]1Cc2nn3c(c2CN1C(=O)c1ccc(Cl)c(Cl)c1)C(=O)N([C@H](C)c1ccc(OC(F)F)cc1)CC3` [Compound 27, (3R)-2-(3,4-Dichlorobenzoyl)-9-{(1R)-1-[4-(difluoromethoxy)phenyl]ethyl}-3-methyl-1,2,3,4,8,9-hexahydropyrido[4′,3′:3,4]pyrazolo[1,5-a]pyrazin-10(7H)-one], the EC50 [1, 3] is reported as 0.103 µM and the CC50 at 3 days [2] is reported as greater than 50 µM.
Compound `COc1ccc(CN2CCn3nc4c(c3C2=O)CN(C(=O)c2ccc(C(F)F)c(C#N)c2)CC4)cc1` [Example C70] has an EC50 [1, 3] of 0.232 µM and a CC50 at 3 days [2] greater than 50 µM.
`C[C@@H]1Cc2nn3c(c2CN1C(=O)c1ccc(Cl)c(Cl)c1)C(=O)N(Cc1cn(C2CC2)nn1)CC3` [Example C239] showed an EC50 [1, 3] of 0.154 µM and a CC50 at 3 days [2] greater than 50 µM.
In the case of `C[C@@H]1Cc2nn3c(c2CN1C(=O)c1ccc(Cl)c(Cl)c1)C(=O)N(Cc1nc(Cl)ccc1F)CC3` [Example C199], the EC50 [1, 3] is reported as 0.33 µM and the CC50 at 3 days [2] is reported as greater than 50 µM.
Work on `C[C@@H]1Cc2nn3c(c2CN1C(=O)c1cc2c(C(F)F)c(F)ccc2[nH]1)C(=O)N(Cc1ccccn1)CC3` [Example C124] yielded an EC50 [1, 3] of 0.011 µM and a CC50 at 3 days [2] of 26.7 µM.
`C[C@@H]1Cc2nn3c(c2CN1C(=O)c1ccc(Cl)c(Cl)c1)C(=O)N([C@@H](C)c1ccccc1C(F)(F)F)CC3` (relative stereo) [C123*R] gave an EC50 [1, 3] of 0.174 µM and a CC50 at 3 days [2] of 20 µM.
For `CC(c1ccccc1)N1CCn2nc3c(c2C1=O)CN(C(=O)c1ccc(Cl)c(Cl)c1)[C@H](C)C3` (some centres unmarked) [Example C93], the EC50 [1, 3] was 0.055 µM and the CC50 at 3 days [2] was 30 µM.
`CC(c1ccccc1F)N1CCn2nc3c(c2C1=O)CN(C(=O)c1ccc(Cl)c(Cl)c1)[C@H](C)C3` (some centres unmarked) [Example C244] gave an EC50 [1, 3] of 0.048 µM and a CC50 at 3 days [2] of 24.5 µM.
`CC(c1ccc(F)nc1)N1CCn2nc3c(c2C1=O)CN(C(=O)c1ccc(Cl)c(Cl)c1)[C@H](C)C3` (some centres unmarked) [Example C128] showed an EC50 [1, 3] of 0.081 µM and a CC50 at 3 days [2] greater than 50 µM.
`Cc1cc(C(=O)N2Cc3c(nn4c3C(=O)N(Cc3ccccn3)CC4)C[C@H]2C)ccc1Cl` [Example C111] gave an EC50 [1, 3] of 0.086 µM and a CC50 at 3 days [2] greater than 50 µM.
With `CC(c1ccc(Cl)nc1)N1CCn2nc3c(c2C1=O)CN(C(=O)c1ccc(Cl)c(Cl)c1)[C@H](C)C3` (some centres unmarked) [Example C130] the EC50 [1, 3] was 0.082 µM and the CC50 at 3 days [2] was 33.7 µM.
With `O=C(c1ccc(Cl)cc1F)N1CCc2nn3c(c2C1)C(=O)N(Cc1ccccn1)CC3` [Example C72] the EC50 [1, 3] was greater than 2.5 µM and the CC50 at 3 days [2] was greater than 50 µM.
`C[C@@H]1Cc2nn3c(c2CN1C(=O)c1ccc(Cl)c(Cl)c1)C(=O)N(Cc1ccc(OC(F)F)cc1)CC3` [Compound 13, (3R)-2-(3,4-Dichlorobenzoyl)-9-{[4-(difluoromethoxy)phenyl]methyl}-3-methyl-1,2,3,4,8,9-hexahydropyrido[4′,3′:3,4]pyrazolo[1,5-a]pyrazin-10(7H)-one] showed an EC50 [1, 3] of 0.055 µM.
`Cc1nc(C)c(CN2CCn3nc4c(c3C2=O)CN(C(=O)c2ccc(Cl)c(Cl)c2)[C@H](C)C4)s1` [Example C234] gave an EC50 [1, 3] of 0.036 µM and a CC50 at 3 days [2] greater than 50 µM.
For `C[C@@H]1Cc2nn3c(c2CN1C(=O)c1ccc(Cl)c(Cl)c1)C(=O)N(Cc1ccnc(C#N)c1)CC3` [Example C211], the EC50 [1, 3] was 0.285 µM and the CC50 at 3 days [2] was greater than 50 µM.
In the case of `Cc1nnc(CN2CCn3nc4c(c3C2=O)CN(C(=O)c2ccc(Cl)c(Cl)c2)[C@H](C)C4)n1C1CC1` [Example C158], the EC50 [1, 3] is reported as 2.38 µM and the CC50 at 3 days [2] is reported as greater than 50 µM.
Work on `C[C@@H]1Cc2nn3c(c2CN1C(=O)c1ccc(Cl)c(Cl)c1)C(=O)N(Cc1ccncc1C(F)F)CC3` [Example C167] yielded an EC50 [1, 3] of 0.277 µM and a CC50 at 3 days [2] greater than 50 µM.
With `Cc1noc(CN2CCn3nc4c(c3C2=O)CN(C(=O)c2ccc(Cl)c(Cl)c2)[C@H](C)C4)n1` [Example C148] the EC50 [1, 3] was 0.385 µM and the CC50 at 3 days [2] was greater than 50 µM.
`CCOc1cc(CN2CCn3nc4c(c3C2=O)CN(C(=O)c2ccc(Cl)c(Cl)c2)[C@H](C)C4)nc2nc(C(F)(F)F)nn12` [Example C243] gave an EC50 [1, 3] greater than 2.5 µM and a CC50 at 3 days [2] greater than 50 µM.
In the case of `CC(C)CN1CCCn2nc3c(c2C1=O)CN(C(=O)c1ccc(Cl)c(Cl)c1)[C@H](C)C3` [Compound 39, (3R)-2-(3,4-Dichlorobenzoyl)-3-methyl-10-(2-methylpropyl)-1,2,3,4,7,8,9,10-octahydro-11H-pyrido[4′,3′:3,4]pyrazolo[1,5-a][1,4]diazepin-11-one], the EC50 ([1]; HepG2.117, 72 h) is reported as 2.49 µM and the CC50 at 3 days [2] is reported as greater than 50 µM.
In the case of `COc1cc(CN2CCn3nc4c(c3C2=O)CN(C(=O)c2ccc(Cl)c(Cl)c2)[C@H](C)C4)ccc1OC(F)F` [Example C205], the EC50 [1, 3] is reported as 0.04 µM.
Work on `Cc1ccc(CN2CCn3nc4c(c3C2=O)CN(C(=O)c2ccc(Cl)c(Cl)c2)[C@H](C)C4)c(F)c1` [Example C206] yielded an EC50 [1, 3] of 0.038 µM.
Work on `C[C@@H]1Cc2nn3c(c2CN1C(=O)c1ccc(Cl)c(Cl)c1)C(=O)N(Cc1cccc2c1ccn2C)CC3` [Example C120] yielded an EC50 [1, 3] of 0.047 µM.
For `COc1ccc(CN2CCn3nc4c(c3C2=O)CN(C(=O)c2ccc(Cl)c(Cl)c2)[C@H](C)C4)cc1F` [Example C140], the EC50 [1, 3] was 0.032 µM.
